Test results taken from PubChem BioAssay (NCI).
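Exposure lasted 48 hours, with cells grown in 96-well plates and compounds tested at five concentrations. GI50 marks 50% less growth. TGI is the concentration that stops growth completely.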

What was measured:
Assay in all cases: growth of human tumour cells (NCI), 48 h
[1] = tested on: BT-549 breast
[2] = tested on: HOP-62 NSCLC
[3] = tested on: IGROV1 ovarian
[4] = tested on: KM12 colon
[5] = tested on: OVCAR-3 ovarian
[6] = tested on: OVCAR-4 ovarian
[7] = tested on: RPMI-8226 leukemia
[8] = tested on: SK-OV-3 ovarian
[9] = tested on: SNB-75 CNS
[10] = tested on: U251 CNS

Row | Compound | TGI [1] [µM] | TGI [2] [µM] | TGI [3] [µM] | TGI [4] [µM] | TGI [5] [µM] | TGI [6] [µM] | TGI [7] [µM] | TGI [8] [µM] | TGI [9] [µM] | TGI [10] [µM] | GI50 [3] [µM] | GI50 [1] [µM] | GI50 [2] [µM] | GI50 [4] [µM] | GI50 [5] [µM] | GI50 [6] [µM] | GI50 [7] [µM] | GI50 [8] [µM] | GI50 [9] [µM] | GI50 [10] [µM]
1 | COc1ccc(/C=N/n2c(Cc3ccc(Cl)cc3)n[nH]c2=O)c(OC)c1 | 67 | > 100 | > 100 | > 100 | > 100 | 41.6 | > 100 | > 100 | 37.5 | > 100 | – | – | – | – | – | – | – | – | – | –
2 | Cc1ccc2nc(Cl)c(/C=N/N3C(=O)/C(=C/c4ccc(N(C)C)cc4)N=C3c3ccccc3)cc2c1 | > 100 | > 100 | > 100 | > 100 | 44.9 | > 100 | 65.3 | > 100 | > 100 | > 100 | – | – | – | – | – | – | – | – | – | –
3 | CC(=N\N=C\c1ccccn1)/C(C)=N/N=C(C)/C(C)=N/N=C(C)/C(C)=N/N=C/c1ccccn1 | > 100 | > 100 | > 100 | > 100 | > 100 | > 100 | > 100 | > 100 | > 100 | > 100 | – | – | – | – | – | – | – | – | – | –
4 | CC(C)(C)c1cc(C2COC(=O)COCC(=O)OCCOCCOCCO2)cc(C(C)(C)C)c1O (stereo unspecified) | > 100 | > 100 | > 100 | > 100 | > 100 | > 100 | > 100 | 55.9 | 37 | > 100 | – | – | – | – | – | – | – | – | – | –
5 | O=C1O[C@]2(c3ccccc3)C(c3ccccc3)=C[C@]2(C(=O)c2ccccc2)C1=O | > 100 | > 100 | > 100 | > 100 | > 100 | > 100 | 64.9 | > 100 | > 100 | 93.5 | – | – | – | – | – | – | – | – | – | –
6 | Cc1nnc2sc(N/N=C/c3ccccc3)nn12 | > 100 | > 100 | > 100 | > 100 | > 100 | > 100 | > 100 | 88.1 | > 100 | > 100 | – | – | – | – | – | – | – | – | – | –
7 | CC1(C)[C@@H]2C[C@H]1C(Cc1cccc(C[C@H]3c4cc(-c5ccccn5)ncc4[C@H]4C[C@@H]3C4(C)C)c1)c1cc(-c3ccccn3)ncc12 (stereo partly specified) | > 93.5 | 15.5 | > 100 | > 76.9 | 37.2 | > 100 | 32.1 | > 33.4 | > 100 | 16.3 | 0.662 | – | – | – | – | – | – | – | – | –
8 | C/C=C\C(CC(=O)NCCC1CN(C(=O)c2ccccc2)c2ccccc21)CC(=O)OC (stereo unspecified) | > 100 | > 100 | > 100 | > 100 | > 100 | > 100 | > 100 | > 100 | > 100 | > 100 | – | – | – | – | – | – | – | – | – | –
9 | CCOC(=O)C(NCc1cccc(C(F)(F)F)c1)(NC(=O)c1ccccc1)C(F)(F)F (stereo unspecified) | 56.1 | > 100 | 66.9 | > 100 | 82 | > 100 | 94.6 | > 100 | 93.3 | > 100 | – | – | – | – | – | – | – | – | – | –
10 | Nc1ccc(-n2c(=O)oc3ccc(Cl)cc3c2=O)c(Cl)c1 | 0.338 | 1.59 | 36.7 | 0.908 | 7.21 | > 94.8 | 0.256 | 1.6 | 0.41 | > 34.5 | 0.14 | 0.0844 | 0.202 | 0.255 | 0.107 | 0.111 | 0.0558 | 0.0934 | 0.0894 | 0.118
11 | N#Cc1nc(/C=C/c2ccccc2)oc1N | > 100 | > 100 | > 100 | > 100 | > 100 | > 100 | > 100 | > 100 | > 100 | > 100 | – | – | – | – | – | – | – | – | – | –
